The test system of one assay is H929 cells. Nature of the assay: Cell viability assay (Cell TiterGlo), H929 cells. Conditions: Homo sapiens, NCI-H929, 24 hours. Type of assay: cell-based, human. The protocol:
Cell viability assays were performed using A431 or H929 cells. A431 cells were seeded in 96-well plates at 10,000 cells/well, and after overnight incubation, treated with compounds at 2-times the final concentration to result in a dose response of 3-fold dilutions from 10 μM to 0.0005 μM (50 μL/well, 0.1% final DMSO concentration). H929 cells were seeded in 96-well plates at 10,000 cells/well and treated immediately with compounds as described above. After 24 hours at 37° C., cell viability was measured using Cell TiterGlo reagent (Promega) with a luminescence reader. Alternately, cell viability assays were performed in 384-well format. A431 cells were seeded in 384-well plates at 2500 cells/well and, after overnight incubation, treated with compounds in a dose response of 3-fold dilutions from 10 μM to 0.0005 μM ([…], 0.1% final DMSO concentration). For the H929 viability assay, […] of the compounds was dispensed into 384-well plates in a dose response as described above and cells were immediately seeded in 384-well plates at 2500 cells/well. After 24 hours at […], cell viability was measured using Cell TiterGlo reagent (Promega) with a luminescence reader.
On the technique in general: In ATP-based viability assays light output follows the ATP content of the culture.

For a further assay, the target named is T1, CDK9/Cyclin T1 (Homo sapiens, UniProt P50750).
T1 construct: purchased Carna Biosciences 04-110
Nature of the assay: CDK9 enzyme activity, LANCE ULight TR-FRET kinase assay. Type of assay: biochemical. The settings on record: 1000 μM ATP, 4 nM CDK9/Cyclin T1, 30 minutes. The protocol:
CDK9 enzyme activities were measured using LANCE ULight TR-FRET kinase assay reagents (PerkinElmer, Waltham, Mass.). Compounds were directly added in 100% DMSO to white low volume assay plates (Perkin Elmer Proxiplate 6008289) using a Labcyte Echo acoustic dispenser. Assay reagents in serine/threonine kinase assay buffer containing 20 mM HEPES, 10 mM MgCl2, 100 mM Na3VO4, and 0.0075% Triton X-100. were added for final reaction mixture concentrations of 1000 μM ATP, 100 nM U-light MBP peptide (Perkin Elmer TRF0109M) and reaction initiated with 4 nM CDK9/Cyclin T1 (Carna Biosciences 04-110). The kinase reaction was carried out for 30 minutes before addition of stopping buffer to a final of 20 mM EDTA and 0.5 nM of LANCE Ultra Europium anti-phospho-MBP antibody (PerkinElmer TRF0201M) in LANCE detection buffer (PerkinElmer CR97-100). The reaction was equilibrated for 1 hour and the signal read in the Perkin Elmer Envision in TR-FRET mode (excitation at 320 nm and emission at 615/665 nm).
A general note: Time-resolved FRET reads energy transfer from a long-lived donor to a nearby acceptor.

pEC50, pIC50: −log10 of the molar value.

T1 sequence (P50750 whole entry): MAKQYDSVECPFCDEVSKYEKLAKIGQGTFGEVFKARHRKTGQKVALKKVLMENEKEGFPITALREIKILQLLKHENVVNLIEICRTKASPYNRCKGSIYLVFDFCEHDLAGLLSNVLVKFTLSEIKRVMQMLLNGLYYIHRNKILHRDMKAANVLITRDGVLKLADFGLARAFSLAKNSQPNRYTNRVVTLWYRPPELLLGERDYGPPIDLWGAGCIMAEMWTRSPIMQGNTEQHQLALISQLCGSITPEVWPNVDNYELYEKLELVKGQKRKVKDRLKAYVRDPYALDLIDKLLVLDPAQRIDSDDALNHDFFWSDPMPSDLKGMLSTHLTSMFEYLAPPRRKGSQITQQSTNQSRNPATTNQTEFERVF
T1 sequence (O60563 whole entry partner): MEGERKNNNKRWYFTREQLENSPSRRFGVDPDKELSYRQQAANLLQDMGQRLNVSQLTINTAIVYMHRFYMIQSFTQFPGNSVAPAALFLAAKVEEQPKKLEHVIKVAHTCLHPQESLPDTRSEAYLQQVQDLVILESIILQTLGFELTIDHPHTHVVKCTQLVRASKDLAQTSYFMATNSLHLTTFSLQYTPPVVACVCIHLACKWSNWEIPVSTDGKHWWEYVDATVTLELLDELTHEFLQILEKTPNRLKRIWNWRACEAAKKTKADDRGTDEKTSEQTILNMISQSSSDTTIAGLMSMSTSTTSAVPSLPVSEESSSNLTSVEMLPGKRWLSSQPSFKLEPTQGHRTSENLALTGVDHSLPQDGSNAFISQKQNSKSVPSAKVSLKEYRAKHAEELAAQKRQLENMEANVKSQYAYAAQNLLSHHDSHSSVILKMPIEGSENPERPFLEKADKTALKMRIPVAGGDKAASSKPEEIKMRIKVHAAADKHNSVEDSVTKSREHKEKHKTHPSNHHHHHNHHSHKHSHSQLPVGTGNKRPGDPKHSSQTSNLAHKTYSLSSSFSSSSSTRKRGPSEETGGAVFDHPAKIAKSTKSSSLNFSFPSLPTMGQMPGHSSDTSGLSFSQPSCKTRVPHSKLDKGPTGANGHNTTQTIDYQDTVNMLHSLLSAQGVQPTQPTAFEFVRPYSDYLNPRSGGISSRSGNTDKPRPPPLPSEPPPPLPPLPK

The compound `Fc1cncc(Cn2ccc3ncc(-c4ccnc5[nH]c(C6CCNCC6)cc45)cc32)c1` [Example 37, 1-[(5-fluoropyridin-3-yl)methyl]-6-[2-(piperidin-4-yl)-1H-pyrrolo[2,3-b]pyridin-4-yl]-1H-pyrrolo[3,2-b]pyridine] had a pEC50 in the assay with H929 cells of 6.77. Further, at CDK9/Cyclin T1, the pIC50 was 7.59.

Compound `O=C(CO)N1CC=C(c2cc3c(-c4ccc5nnn(CC6CCOCC6)c5c4)ccnc3[nH]2)CC1` [Example 38, 2-hydroxy-1-[4-{4-[1-(tetrahydro-2H-pyran-4-ylmethyl)-1H-benzotriazol-6-yl}-1H-pyrrolo[2,3-b]pyridin-2-yl]-3,6-dihydropyridin-1(2H)-yl]ethanone] showed a pEC50 in the assay with H929 cells of 6.36. Also, at CDK9/Cyclin T1, the pIC50 was 7.21.

Regarding `CS(=O)(=O)N1CC=C(c2cc3c(-c4ccc5nnn(CC6CCOCC6)c5c4)ccnc3[nH]2)CC1` [Example 39, 6-{2-[1-(methylsulfonyl)-1,2,3,6-tetrahydropyridin-4-yl]-1H-pyrrolo[2,3-b]pyridin-4-yl}-1-(tetrahydro-2H-pyran-4-ylmethyl)-1H-benzotriazole], the pEC50 in the assay with H929 cells was 6.70. On CDK9/Cyclin T1, this compound gave a pIC50 of 7.13.

Consider `Fc1cccc(Cn2ccc3ncc(-c4ccnc5[nH]c(C6=CCNCC6)cc45)cc32)c1` [Example 40, 1-(3-fluorobenzyl)-6-[2-(1,2,3,6-tetrahydropyridin-4-yl)-1H-pyrrolo[2,3-b]pyridin-4-yl]-1H-pyrrolo[3,2-b]pyridine], for which the pEC50 with H929 cells was 7.28. In addition, the pIC50 against CDK9/Cyclin T1 was 7.77.

`COC(=N)c1cn(Cc2cccc(F)c2)c2cc(-c3ccnc4[nH]c(C5CCNCC5)cc34)c(F)cc12` [Example 41, methyl 5-fluoro-1-(3-fluorobenzyl)-6-[2-(piperidin-4-yl)-1H-pyrrolo[2,3-b]pyridin-4-yl]-1H-indole-3-carboximidate]: the pEC50 in the assay on H929 cells is 6.23. The same compound showed a pIC50 against CDK9/Cyclin T1 of 7.04.

Turning to `N#Cc1cn(Cc2cccc(F)c2)c2cc(-c3ccnc4[nH]c(C5CCNCC5)cc34)c(F)cc12` [Example 42, 5-fluoro-1-(3-fluorobenzyl)-6-[2-(piperidin-4-yl)-1H-pyrrolo[2,3-b]pyridin-4-yl]-1H-indole-3-carbonitrile], the pEC50 in the assay with H929 cells is 6.68. The compound further had a pIC50 against CDK9/Cyclin T1 of 7.26.

For `Fc1cccc(Cn2ccc3ccc(-c4ccnc5[nH]c(C6CCNCC6)cc45)nc32)c1` [Example 43, 1′-(3-fluorobenzyl)-2-(piperidin-4-yl)-1H,1′H-4,6′-bipyrrolo[2,3-b]pyridine], the pEC50 in the assay on H929 cells was 6.82. This compound also gave a pIC50 against CDK9/Cyclin T1 of 7.59.

In turn, `c1cc(-c2ccc3ccn(CC4CCOCC4)c3n2)c2cc(C3CCNCC3)[nH]c2n1` [Example 44, 2-(piperidin-4-yl)-1′-(tetrahydro-2H-pyran-4-ylmethyl)-1H,1′H-4,6′-bipyrrolo[2,3-b]pyridine] had a pEC50 in the assay on H929 cells of 5.96. The pIC50 on CDK9/Cyclin T1 is 7.36.

With `CNC(=O)N1CCC(c2cc3c(-c4cnc5ccn(Cc6cccc(F)c6)c5c4)ccnc3[nH]2)CC1` [Example 45, 4-{4-[1-(3-fluorobenzyl)-1H-pyrrolo[3,2-b]pyridin-6-yl]-1H-pyrrolo[2,3-b]pyridin-2-yl}-N-methylpiperidine-1-carboxamide], in the assay with H929 cells, the pEC50 is 6.92. Besides, the pIC50 at CDK9/Cyclin T1 is 7.52.

Consider `CS(=O)(=O)N1CCC(c2cc3c(-c4cnc5ccn(CC6CCOCC6)c5c4)ccnc3[nH]2)CC1` [Example 46, 6-{2-[1-(methylsulfonyl)piperidin-4-yl]-1H-pyrrolo[2,3-b]pyridin-4-yl}-1-(tetrahydro-2H-pyran-4-ylmethyl)-1H-pyrrolo[3,2-b]pyridine], for which, in the assay on H929 cells, the pEC50 is 5.74. At CDK9/Cyclin T1, this compound gave a pIC50 of 6.85.

`CNC(=O)N1CCC(c2cc3c(-c4cnc5ccn(Cc6cncc(F)c6)c5c4)ccnc3[nH]2)CC1` [Example 47, 4-(4-{1-[(5-fluoropyridin-3-yl)methyl]-1H-pyrrolo[3,2-b]pyridin-6-yl}-1H-pyrrolo[2,3-b]pyridin-2-yl)-N-methylpiperidine-1-carboxamide]: the pEC50 in the assay on H929 cells is 6.22. Moreover, the pIC50 against CDK9/Cyclin T1 was 7.64.

As usually defined, the pEC50 is the negative decadic logarithm of the EC50, by convention in mol/L. A word on the pIC50: it is the negative decadic logarithm of the IC50, by convention in mol/L.
